SMILES strings stand for the structures.

Data on 31 molecules can be found in patent publication US7875647B2, “Heteroaryl-pyrazole derivatives as cannabinoid CB1 receptor antagonists” (Green Cross Corporation, priority 2006, dated 2011).

The target in one test is T1, Cannabinoid-1 receptor (CB1R) (Rattus norvegicus, UniProt P20272).
T1 construct: The tissue obtained from the brain of SD rats was homogenized; from tissue; host or cells: brain of SD rats (membrane pellet of the homogenate)
T1 sequence (P20272 whole entry): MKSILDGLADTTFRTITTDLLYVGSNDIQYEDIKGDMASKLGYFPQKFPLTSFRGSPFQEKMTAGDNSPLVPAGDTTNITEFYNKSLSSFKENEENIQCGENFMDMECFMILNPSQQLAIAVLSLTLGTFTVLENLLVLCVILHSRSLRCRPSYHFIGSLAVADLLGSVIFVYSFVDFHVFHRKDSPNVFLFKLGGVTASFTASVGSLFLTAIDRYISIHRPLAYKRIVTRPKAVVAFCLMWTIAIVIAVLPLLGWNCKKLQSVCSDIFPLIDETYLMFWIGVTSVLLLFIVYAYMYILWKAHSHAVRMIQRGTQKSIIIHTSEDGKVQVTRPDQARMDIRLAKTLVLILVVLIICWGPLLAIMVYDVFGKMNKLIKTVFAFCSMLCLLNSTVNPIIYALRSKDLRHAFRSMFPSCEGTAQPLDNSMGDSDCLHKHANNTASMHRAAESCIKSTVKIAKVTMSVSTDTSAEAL
Description: Cannabinoid-1 receptor (CB1R) binding affinity assay ([3H]CP-55940, rat CB-1 receptor binding protocol). The conditions noted are these: IC50(nM), brain tissue of SD rats, [3H]CP-55940, 30° C. 60 min.
For the molecule `CC(F)c1c(-c2nnc(C(C)(C)C)s2)nn(-c2ccc(Cl)cc2Cl)c1-c1ccc(Br)cc1` (stereo not shown) [Example 530, 2-(5-(4-bromophenyl)-1-(2,4-dichlorophenyl)-4-(1-fluoroethyl)-1H-pyrazol-3-yl)-5-tert-butyl-1,3,4-thiadiazole], the IC50 was 11.8 nM.

For `COC(=O)NC(C)c1c(-c2nnc(C(C)(C)C)s2)nn(-c2ccc(Cl)cc2Cl)c1-c1ccc(Br)cc1` (stereo not shown) [Example 532, Methyl 1-(5-(4-bromophenyl)-3-(5-tert-butyl-1,3,4-thiadiazol-2-yl)-1-(2,4-dichlorophenyl)-1H-pyrazol-4-yl)ethylcarbamate], the IC50 stood at 8.75 nM.

The same test, now with this note: brain tissue of SD rats, [3H]CP-55940, 30° C. 60 min; read-out: IC50.
As for `CCc1c(-c2nnc(C3(c4ccccc4)CCCC3)o2)nn(-c2ccc(Cl)cc2Cl)c1-c1ccc(Br)cc1` [Example 188, 2-(5-(4-bromophenyl)-1-(2,4-dichlorophenyl)-4-ethyl-1H-pyrazol-3-yl)-5-(1-phenylcyclopentyl)-1,3,4-oxadiazole], the IC50 came out at 15.5 nM.

As for `CCC(C)(C)c1nnc(-c2nn(-c3ccc(Cl)cc3Cl)c(-c3cccc(Cl)c3)c2C)s1` [Example 439, 2-(5-(3-Chlorophenyl)-1-(2,4-dichlorophenyl)-4-methyl-1H-pyrazol-3-yl)-5-tert-pentyl-1,3,4-thiadiazole], the IC50 was 263 nM. Regarding `CC(=O)c1c(-c2nnc(C(C)(C)C)s2)nn(-c2ccc(Cl)cc2Cl)c1-c1ccc(Br)cc1` [Example 533, 1-(5-(4-bromophenyl)-3-(5-tert-butyl-1,3,4-thiadiazol-2-yl)-1-(2,4-dichlorophenyl)-1H-pyrazol-4-yl)ethanone], the IC50 stood at 6.03 nM. In the case of `CCc1c(-c2nnc(C3(c4ccc(OC)cc4)CC3)s2)nn(-c2ccc(Cl)cc2Cl)c1-c1ccc(Cl)cc1` [Example 481, 2-(5-(4-chlorophenyl)-1-(2,4-dichlorophenyl)-4-ethyl-1H-pyrazol-3-yl)-5-(1-(4-methoxyphenyl)cyclopropyl)-1,3,4-thiadiazole], the IC50 is 7.6 nM. As to `CC(C)(C)c1nnc(-c2nn(-c3ccc(Cl)cc3Cl)c(-c3ccc(Br)cc3)c2C=O)o1` [Example 203, 5-(4-bromophenyl)-3-(5-tert-butyl-1,3,4-oxadiazol-2-yl)-1-(2,4-dichlorophenyl)-1H-pyrazole-4-carbaldehyde], the IC50 amounted to 18.8 nM. As to `Cc1c(-c2n[nH]c(CC3CC3)n2)nn(-c2ccc(Cl)cc2Cl)c1-c1ccc(Cl)cc1` [Example 620, 3-(5-(4-chlorophenyl)-1-(2,4-dichlorophenyl)-4-methyl-1H-pyrazol-3-yl)-5-(cyclopropylmethyl)-1H-1,2,4-triazole], the IC50 turned out to be 720 nM.

Turning to `Cc1c(-c2nnn(Cc3ccoc3)n2)nn(-c2ccc(Cl)cc2Cl)c1-c1ccc(Cl)cc1` [Example 596, 5-(5-(4-Chlorophenyl)-1-(2,4-dichlorophenyl)-4-methyl-1H-pyrazol-3-yl)-2-(furan-3-ylmethyl)-2H-tetrazole], the IC50 came to 195 nM.

Turning to `CCC(C)(C)c1nnc(-c2nn(-c3ccccc3Cl)c(-c3ccc(Cl)cc3)c2C)s1` [Example 410, 2-(1-(2-chlorophenyl)-5-(4-chlorophenyl)-4-methyl-1H-pyrazol-3-yl)-5-tert-pentyl-1,3,4-thiadiazole], the IC50 came to 11.7 nM. The same measure, in the same setting: next, `Cc1c(-c2n[nH]c(C3CCCCCC3)n2)nn(-c2ccc(Cl)cc2Cl)c1-c1ccc(Cl)cc1` [Example 615, 3-(5-(4-chlorophenyl)-1-(2,4-dichlorophenyl)-4-methyl-1H-pyrazol-3-yl)-5-cycloheptyl-1H-1,2,4-triazole]: 625 nM; `CCc1c(-c2nnc(C3(Cc4ccc(Cl)cc4)CC3)s2)nn(-c2ccc(Cl)cc2Cl)c1-c1ccc(Br)cc1` [Example 472, 2-(1-(4-chlorobenzyl)cyclopropyl)-5-(5-(4-bromophenyl)-1-(2,4-dichlorophenyl)-4-ethyl-1H-pyrazol-3-yl)-1,3,4-thiadiazole]: 6.66 nM. Same read-out and setting: next, `CC(=O)OCc1c(-c2nnc(C(C)(C)C)s2)nn(-c2ccc(Cl)cc2Cl)c1-c1ccc(Cl)cc1` [Example 521, (3-(5-tert-butyl-1,3,4-thiadiazol-2-yl)-5-(4-chlorophenyl)-1-(2,4-dichlorophenyl)-1H-pyrazol-4-yl)methyl acetate]: 16.7 nM; `CC(C)(C)c1nnc(-c2nn(-c3ccc(Cl)cc3Cl)c(-c3ccc(Cl)cc3)c2Cl)s1` [Example 540, 2-tert-butyl-5-(4-chloro-5-(4-chlorophenyl)-1-(2,4-dichlorophenyl)-1H-pyrazol-3-yl)-1,3,4-thiadiazole]: 98.1 nM; `CC#Cc1c(-c2nnc(C(C)(C)C)o2)nn(-c2ccc(Cl)cc2Cl)c1-c1ccc(Cl)cc1` [Example 261, 2-tert-butyl-5-(5-(4-chlorophenyl)-1-(2,4-dichlorophenyl)-4-(prop-1-ynyl)-1H-pyrazol-3-yl)-1,3,4-oxadiazole]: 15.4 nM.

As for `CC(O)c1c(-c2nnc(C(C)(C)C)s2)nn(-c2ccc(Cl)cc2Cl)c1-c1ccc(Br)cc1` (stereo not shown) [Example 528, 1-(5-(4-bromophenyl)-3-(5-tert-butyl-1,3,4-thiadiazol-2-yl)-1-(2,4-dichlorophenyl)-1H-pyrazol-4-yl)ethanol], the IC50 is 6.47 nM. Take `Cc1c(-c2nnc(C(C)(C)c3ccccc3)s2)nn(-c2ccccc2Cl)c1-c1ccc(Cl)cc1` [Example 416, 2-(1-(2-chlorophenyl)-5-(4-chlorophenyl)-4-methyl-1H-pyrazol-3-yl)-5-(2-phenylpropan-2-yl)-1,3,4-thiadiazole]: the IC50 was determined as 9.27 nM. `Cc1c(-c2nc(C(C)C)n(C(C)C)n2)nn(-c2ccc(Cl)cc2Cl)c1-c1ccc(Cl)cc1` [Example 636, 3-(5-(4-chlorophenyl)-1-(2,4-dichlorophenyl)-4-methyl-1H-pyrazol-3-yl)-1,5-diisopropyl-1H-1,2,4-triazole]: the IC50 came out at 851 nM. Still for that read-out and setting: as for `Cc1c(-c2nnn(Cc3cccnc3)n2)nn(-c2ccc(Cl)cc2Cl)c1-c1ccc(Cl)cc1` [Example 586, 3-((5-(5-(4-Chlorophenyl)-1-(2,4-dichlorophenyl)-4-methyl-1H-pyrazol-3-yl)-2H-tetrazol-2-yl)methyl)pyridine], the figure is 100 nM; as for `Cc1c(-c2nnc(CC(F)(F)F)s2)nn(-c2ccc(Cl)cc2Cl)c1-c1ccc(Cl)cc1` [Example 466, 2-(5-(4-chlorophenyl)-1-(2,4-dichlorophenyl)-4-methyl-1H-pyrazol-3-yl)-5-(2,2,2-trifluoroethyl)-1,3,4-thiadiazole], 102 nM. Still for that read-out and setting: as for `CCCCC(C)(C)c1nnc(-c2nn(-c3ccc(Cl)cc3Cl)c(-c3ccc(Cl)cc3)c2C)s1` [Example 406, 2-(5-(4-chlorophenyl)-1-(2,4-dichlorophenyl)-4-methyl-1H-pyrazol-3-yl)-5-(2-methylhexan-2-yl)-1,3,4-thiadiazole], the figure is 27.4 nM. For `Cc1c(-c2n[nH]c(C3CC3)n2)nn(-c2ccc(Cl)cc2Cl)c1-c1ccc(Cl)cc1` [Example 619, 3-(5-(4-chlorophenyl)-1-(2,4-dichlorophenyl)-4-methyl-1H-pyrazol-3-yl)-5-cyclopropyl-1H-1,2,4-triazole], the IC50 turned out to be 128 nM.

In the case of `CC(C)(C)c1nnc(-c2nn(-c3ccc(Cl)cc3Cl)c(-c3ccc(Br)cc3)c2CO)s1` [Example 522, (5-(4-bromophenyl)-3-(5-tert-butyl-1,3,4-thiadiazol-2-yl)-1-(2,4-dichlorophenyl)-1H-pyrazol-4-yl)methanol], the IC50 stood at 4.61 nM.

Regarding `CC(C)(C)c1nnc(-c2nn(-c3ccc(Cl)cc3Cl)c(-c3ccc(Cl)cc3)c2Cc2nnn[nH]2)o1` [Example 330, 2-(4-((1H-tetrazol-5-yl)methyl)-5-(4-chlorophenyl)-1-(2,4-dichlorophenyl)-1H-pyrazol-3-yl)-5-tert-butyl-1,3,4-oxadiazole], the IC50 stood at 897 nM. Turning to `COC(C)(C)c1nnc(-c2nn(-c3ccc(Cl)cc3Cl)c(-c3ccc(Cl)cc3)c2C)o1` [Example 98, 2-(5-(4-chlorophenyl)-1-(2,4-dichlorophenyl)-4-methyl-1H-pyrazol-3-yl)-5-(2-methoxypropan-2-yl)-1,3,4-oxadiazole], the 50% inhibitory concentration (IC50) is 33.7 nM. With `CC(C)(C)c1nnc(-c2nn(-c3ccc(Cl)cc3Cl)c(-c3ccc(Cl)cc3)c2CN2CCCC2=O)o1` [Example 306, 1-((3-(5-tert-butyl-1,3,4-oxadiazol-2-yl)-5-(4-chlorophenyl)-1-(2,4-dichlorophenyl)-1H-pyrazol-4-yl)methyl)pyrrolidin-2-one], the IC50 turned out to be 93.9 nM. Same read-out and setting: as for `CCCOC(C)(C)c1nnc(-c2nn(-c3ccc(Cl)cc3Cl)c(-c3ccc(Cl)cc3)c2C)s1` [Example 449, 2-(5-(4-chlorophenyl)-1-(2,4-dichlorophenyl)-4-methyl-1H-pyrazol-3-yl)-5-(2-propoxypropan-2-yl)-1,3,4-thiadiazole], the figure is 61.3 nM; as for `Cc1c(-c2ncc(CC(C)C)s2)nn(-c2ccc(Cl)cc2Cl)c1-c1ccc(Cl)cc1` [Example 646, 2-(5-(4-chlorophenyl)-1-(2,4-dichlorophenyl)-4-methyl-1H-pyrazol-3-yl)-5-isobutylthiazole], 112 nM; as for `Cc1c(-c2cc(C(C)(C)C)no2)nn(-c2ccc(Cl)cc2Cl)c1-c1ccc(Cl)cc1` [Example 651, 3-tert-butyl-5-(5-(4-chlorophenyl)-1-(2,4-dichlorophenyl)-4-methyl-1H-pyrazol-3-yl)isoxazole], 95.2 nM. On the same count and under the same terms, as for `Clc1ccc(-c2c(Cl)c(-c3nnc(C4CCCCC4)o3)nn2-c2ccc(Cl)cc2Cl)cc1` [Example 335, 2-(4-chloro-5-(4-chlorophenyl)-1-(2,4-dichlorophenyl)-1H-pyrazol-3-yl)-5-cyclohexyl-1,3,4-oxadiazole], the figure is 512 nM; as for `CC(C)(C)c1nnc(-c2nn(-c3ccccc3Cl)c(-c3ccc(Cl)cc3)c2Cn2cncn2)o1` [Example 325, 2-(4-((1H-1,2,4-triazol-1-yl)methyl)-1-(2-chlorophenyl)-5-(4-chlorophenyl)-1H-pyrazol-3-yl)-5-tert-butyl-1,3,4-oxadiazole], 2.26 nM.

Usually IC50 stands for the concentration that inhibits the measured activity by half.
